Here are results for 2 molecules from publication PMC10360056, “Chemical Evolution of Amphiphilic Xenopeptides for Potentiated Cas9 Ribonucleoprotein Delivery” (Journal of the American Chemical Society, 2023).

SMILES strings stand for the structures.

For one experiment, the system named is HeLa eGFP/tub cells. Put plainly: eGFP knockout study by Cas9 RNP nanocarriers, flow cytometry. The format is cell-based. To be noted: 48 h treatment. The protocol: (§1) HeLa WT, HeLa eGFP/tub, HeLa GFPd2 (destabilized eGFP), CT26 eGFP/luc and N2a eGFP/luc cells were grown in DMEM medium supplemented with 10 % FBS, 100 U/mL penicillin, and 100 μg/mL streptomycin. The cells were cultured in ventilated flasks in the cell incubator at 37 °C and 5 % CO2 in a humidified atmosphere. The cells were passaged at a confluency of […]
(§2) Cells were harvested and resuspended in 600 μL of FACS buffer (PBS buffer containing 10 % FBS). The samples were ana-lyzed by flow cytometry on a CytoFLEX S flow cytometer (Beckman Coulter, CA, USA). For eGFP knockout and cellular uptake experiments, 0.6 μL of 1 μg/μL DAPI was added to each sample for differentiating live and dead cells before the measurement. The DAPI signal and BFP fluorescence were detected with 405 nm excitation and 450 nm emission. The eGFP and ATTO488 fluorescence was assayed with 488 nm excitation and 530 nm emission. The ATTO647N fluorescence was assayed with 640 nm excitation and 670 nm emission. Ten thousand of isolated live cells were counted and evaluated. The data were analyzed using FlowJo 7.6.5 by FlowJo, LLC (Becton, Dickinson and Company, USA). […]
(§3) Endosomal escape of Cas9 RNP nanocarriers […]
(§4) Next, the […]
(§5) cells were washed twice with PBS and then fixed with 4 % PFA at RT for 40 min. Afterwards, the cells were washed and incubated with 2 µg/mL DAPI (for staining cell nuclei) for 30 min. Then, the staining solution was removed and 300 μL fresh PBS were added. The slides w ere stored at 4 °C in the dark until the measurement. […]
(§6) Then, the image was conv erted into 8-bit type. The mRuby3/gal8 spots were further determined by Threshold tool, and the number of the spots in the cell cytosol per cell were counted by Analyze Particles tool.
One day prior to the treatments, HeLa eGFP/tub cell s were seeded into 96 -well plates at a density of 5000 cells/well. On the next day, the medium was replaced with 80 μL of fresh medium. 20 μL of Cas9 RNP nanocarriers were added to each well resulting in a series of concentrations of RNP (100, 75, 50, 25, 10, 5, 2.5, 1, 0.5, and 0.1 nM). Lipofectamine CRISPRMAX was tested at the same concentrations of RNP with the preparation procedures as recommended by the manufacturer. The cells were incubated for 48 h. Afterwards, the cells were trypsinized and transfer red to 24-well plates, and incubated for another 72 h. Then, the cells were harvested and prepared for flow cytometry analysis. All experiments were performed in triplicate. eGFP to BFP conversion (HDR) study
One day prior to the treatments, HeLa GFPd2 cel ls were seeded into 96 -well plates at a density of 5000 cells/well. On the next day, the medium was replaced with 80 μL of fresh medium. 20 μL of Cas9 RNP/ssDNA nanocarriers containing different molar ratios of RNP/ssDNA were added to each well resulting i n a series of concentrations of RNP (100, 75, 50, 25, 10, 5, 2.5, 1, 0.5, and 0.1 nM). Lipofectamine CRISPRMAX was tested at the same concentrations of RNP and ssDNA with the prepara-tion procedures as recommended by the manufacturer. The cells were incubat ed for 48 h. Afterwards, the cells were trypsinized and transferred to 24 -well plates, and incubated for another 72 h. Then, the cells were harvested and prepared for flow cytom-etry analysis. […]
Half maximal effective concentration (EC50) values were calculated by GraphPad prism 5. […] All other data were analyzed with GraphPad prism 5 and presented as arithmetic mean ± standard deviation (SD) of at least triplicates. […]

In a further experiment the test system is HeLa WT cells. The experiment in a line: Endocytosis pathway study with inhibitors. The format is cell-based. Conditions: 1 mM amiloride 2 h, 75 nM RNP, 4 h, flow cytometry. The protocol:
sgRNA amount in naked Cas9/sgRNA ribonucleoproteins (Cas9 RNPs) or Cas9 RNP nanocarriers were determined using a Quant-iTTM RiboGreen® RNA assay kit (Invitrogen, CA, USA). 50 μL of naked Cas9 RNPs or Cas9 RNP nanocarriers con-taining 250 ng Cas9 protein and 50 ng sgRNA were mixed with 50 μL of TE buffer and were added to the 96-well plate. The plate was incubated for 10 min. Afterwards, 100 μL of Ribogreen solution (diluted 1:100 in TE buffer) was added to each well.
The plate was incubated for another 5 min. Ribogreen fluorescence intensity was detected using a microplate reader (Spectra-fluor Plus, Tecan, Männedorf, Switzerland) with excitation and emission wavelength of 485 and 528 nm, respectively. […]
Cells were harvested and resuspended in 600 μL of FACS buffer (PBS buffer containing 10 % FBS). […] The DAPI signal and BFP fluorescence were detected with 405 nm excitation and 450 nm emission. The eGFP and ATTO488 fluorescence was assayed with 488 nm excitation and 530 nm emission. The ATTO647N fluorescence was assayed with 640 nm excitation and 670 nm emission. Ten thousand of isolated live cells were counted and evaluated. The data were analyzed using FlowJo 7.6.5 by FlowJo, LLC (Becton, Dickinson and Company, USA).
Cell viability was determined using an MTT assay. […]
Cellular uptake of Cas9 RNP nanocarriers was evaluated by flow cytometry and confocal laser scanning microscopy (CLSM). […]

A further experiment concerns N2a eGFP/luc cells. Put plainly: eGFP knockout in N2a eGFP/luc cells. The format is cell-based, murine. To be noted: 1 nM RNP, 48 h treatment. How it is done: as §1, §2, §3
(§7) Then, the image was conv erted into 8-bit type. The mRuby3/gal8 spots were further determined by Threshold tool, and the number of the spots in the cell cytosol per cell were counted by Analyze Particles tool. […]

The next experiment relates to CT26 eGFP/luc cells. The experiment in a line: eGFP knockout in CT26 eGFP/luc cells. In kind it is cell-based, murine. To be noted: 1 nM RNP, 48 h treatment. How it is done:
as §1, §2, §3, §7

The next experiment concerns HeLa GFPd2 cells. Put plainly: eGFP to BFP conversion (HDR) study, Cas9 RNP/ssDNA co-delivery. To be noted: for HDR: RNP/ssDNA 1/4, 48 h. The format is cell-based. The protocol:
as §1, §2, §3, §4, §5, §6
One day prior to the treatments, HeLa eGFP/tub cell s were seeded into 96 -well plates at a density of 5000 cells/well. On the next day, the medium was replaced with 80 μL of fresh medium. 20 μL of Cas9 RNP nanocarriers were added to each well resulting in a series of concentrations of RNP (100, 75, 50, 25, 10, 5, 2.5, 1, 0.5, and 0.1 nM). […]

In the experiment with HeLa eGFP/tub cells (1 nM RNP, N/P 24), `CCCCC/C=C\C/C=C\CCCCCCCC(=O)NCCCC[C@H](NC(=O)CCCCCCC/C=C\C/C=C\CCCCC)C(=O)NCCCC[C@H](NC(=O)CCC(=O)NCCNCCNCCNCCNC(=O)[C@H](Cc1ccc(O)cc1)NC(=O)[C@H](Cc1ccc(O)cc1)NC(=O)[C@H](Cc1ccc(O)cc1)NC(=O)[C@@H](N)CCCCN=[N+]=[N-])C(=O)NCCNCCNCCNCCNC(=O)CCC(=O)N[C@@H](Cc1ccc(O)cc1)C(=O)N[C@@H](Cc1ccc(O)cc1)C(=O)N[C@@H](Cc1ccc(O)cc1)C(=O)O` [Stp1-LinA] yielded an eGFP knockout of about 80%. The “Cas9 RNP uptake after pretreatment with amiloride (macropinocytosis)” value with HeLa WT cells is “blocked”.

In the case of `CCCCC/C=C\C/C=C\CCCCCCCC(=O)NCCCC[C@H](NC(=O)CCCCCCC/C=C\C/C=C\CCCCC)C(=O)NCCCC[C@H](NC(=O)CN(CC(=O)NCCNCCNCCNCCNC(=O)[C@H](Cc1ccc(O)cc1)NC(=O)[C@H](Cc1ccc(O)cc1)NC(=O)[C@H](Cc1ccc(O)cc1)NC(=O)[C@@H](N)CCCCN=[N+]=[N-])CC(F)(F)F)C(=O)NCCNCCNCCNCCNC(=O)CN(CC(=O)N[C@@H](Cc1ccc(O)cc1)C(=O)N[C@@H](Cc1ccc(O)cc1)C(=O)N[C@@H](Cc1ccc(O)cc1)C(=O)O)CC(F)(F)F` [TFE-IDAtp1-LinA], the “eGFP knockout (disruption)” value in the experiment on HeLa eGFP/tub cells (0.5 nM (500 pM) RNP) is given as about 61%. Also, the eGFP knockout in the experiment on HeLa eGFP/tub cells (1 nM RNP, N/P 24) is about 88%; in the experiment with HeLa eGFP/tub cells (RNP concentrations down to 5 nM) it was “up to 99%”; in the experiment with N2a eGFP/luc cells, 13.4%; in the experiment with CT26 eGFP/luc cells, about 55%. For the same molecule, the HDR in the experiment with HeLa GFPd2 cells (HeLa GFPd2, 0.5 nM RNP) was about 11%; with HeLa GFPd2 cells (HeLa GFPd2, 1 nM RNP) it was about 23%. The HDR efficiency in the experiment with HeLa GFPd2 cells (HeLa GFPd2, 10 nM RNP, RNP/ssDNA ratio 1/8, N/P 12, 48 h) is on record as about 28%.
